Laboratory results as given in the NIST ThermoML archive (doi:10.1016/j.tca.2015.08.013).

Conditions: for surface tension liquid-gas: Drop volume; for mass density / kinematic viscosity / speed of sound / vapor or sublimation pressure: Liquid; for mass density: Vibrating tube method; for kinematic viscosity / speed of sound: 101.33 kPa; for kinematic viscosity: Capillary tube (Ostwald / Ubbelohde) method; for speed of sound: Sing-around technique in a fixed-path interferometer; for vapor or sublimation pressure: Ebulliometric method (Recirculating still)

c1ccoc1 [furan]
Conditions	kinematic viscosity [m2/s]	speed of sound [m/s]	surface tension liquid-gas [mN/m]	vapor or sublimation pressure [kPa]
278.15 K	4.59e-07	1228.1	26.03	–
280.65 K	4.48e-07	1216.2	25.69	–
283.15 K	4.39e-07	1204.5	25.32	–
284.4 K	–	–	–	45.59
285.65 K	4.3e-07	1192.8	24.97	–
285.86 K	–	–	–	48.66
287.16 K	–	–	–	51.63
288.15 K	4.2e-07	1181	24.59	–
288.34 K	–	–	–	54.23
289.2 K	–	–	–	56.05
290.4 K	–	–	–	59.18
290.65 K	4.09e-07	1169.2	24.18	–
291.7 K	–	–	–	62.26
292.2 K	–	–	–	63.6
292.79 K	–	–	–	64.53
293.15 K	3.99e-07	1157.4	23.79	–
294.55 K	–	–	–	69.25
295.55 K	–	–	–	72.4
295.65 K	3.89e-07	1145.3	23.35	–
296.9 K	–	–	–	76.25
297.36 K	–	–	–	77.63
298.15 K	3.79e-07	1133.1	22.94	–
298.44 K	–	–	–	80.9
299.63 K	–	–	–	84.59
300.65 K	3.7e-07	1120.9	22.55	–
300.76 K	–	–	–	88.22
301.52 K	–	–	–	90.81
302.4 K	–	–	–	93.89
303.15 K	3.61e-07	1108.8	22.08	–
303.86 K	–	–	–	99.07
304.46 K	–	–	–	101.33

Conditions	mass density [kg/m3]
278.15 K, 99 kPa	959.086
280.65 K, 99 kPa	955.729
283.15 K, 99 kPa	952.358
283.15 K, 100 kPa	952.36
283.15 K, 2500 kPa	954.38
283.15 K, 5000 kPa	956.94
283.15 K, 7500 kPa	959.39
283.15 K, 10000 kPa	961.81
283.15 K, 20000 kPa	970.97
283.15 K, 30000 kPa	979.35
283.15 K, 40000 kPa	987.2
283.15 K, 50000 kPa	994.5
283.15 K, 60000 kPa	1001.42
285.65 K, 99 kPa	948.976
288.15 K, 99 kPa	945.579
288.15 K, 100 kPa	945.58
288.15 K, 2500 kPa	947.81
288.15 K, 5000 kPa	950.42
288.15 K, 7500 kPa	953.03
288.15 K, 10000 kPa	955.59
288.15 K, 20000 kPa	965.03
288.15 K, 30000 kPa	973.69
288.15 K, 40000 kPa	981.69
288.15 K, 50000 kPa	989.18
288.15 K, 60000 kPa	996.21
290.65 K, 99 kPa	942.167
293.15 K, 99 kPa	938.739
293.15 K, 100 kPa	938.74
293.15 K, 2500 kPa	940.99
293.15 K, 5000 kPa	943.7
293.15 K, 7500 kPa	946.38
293.15 K, 10000 kPa	948.97
293.15 K, 20000 kPa	958.75
293.15 K, 30000 kPa	967.71
293.15 K, 40000 kPa	976.04
293.15 K, 50000 kPa	983.77
293.15 K, 60000 kPa	990.98
295.65 K, 99 kPa	935.294
298.15 K, 99 kPa	931.835
298.15 K, 100 kPa	931.84
298.15 K, 2500 kPa	934.31
298.15 K, 5000 kPa	937.14
298.15 K, 7500 kPa	939.92
298.15 K, 10000 kPa	942.68
298.15 K, 20000 kPa	952.79
298.15 K, 30000 kPa	961.99
298.15 K, 40000 kPa	970.53
298.15 K, 50000 kPa	978.42
298.15 K, 60000 kPa	985.81
300.65 K, 99 kPa	928.357
303.15 K, 99 kPa	924.861
303.15 K, 100 kPa	924.86
303.15 K, 2500 kPa	927.4
303.15 K, 5000 kPa	930.33
303.15 K, 7500 kPa	933.21
303.15 K, 10000 kPa	936
303.15 K, 20000 kPa	946.46
303.15 K, 30000 kPa	956.04
303.15 K, 40000 kPa	964.82
303.15 K, 50000 kPa	972.99
303.15 K, 60000 kPa	980.62
308.15 K, 2500 kPa	920.6
308.15 K, 5000 kPa	923.71
308.15 K, 7500 kPa	926.73
308.15 K, 10000 kPa	929.66
308.15 K, 20000 kPa	940.5
308.15 K, 30000 kPa	950.3
308.15 K, 40000 kPa	959.34
308.15 K, 50000 kPa	967.69
308.15 K, 60000 kPa	975.44
313.15 K, 2500 kPa	913.48
313.15 K, 5000 kPa	916.68
313.15 K, 7500 kPa	919.8
313.15 K, 10000 kPa	922.81
313.15 K, 20000 kPa	934.04
313.15 K, 30000 kPa	944.27
313.15 K, 40000 kPa	953.57
313.15 K, 50000 kPa	962.21
313.15 K, 60000 kPa	970.23
318.15 K, 2500 kPa	906.59
318.15 K, 5000 kPa	909.88
318.15 K, 7500 kPa	913.18
318.15 K, 10000 kPa	916.44
318.15 K, 20000 kPa	928.06
318.15 K, 30000 kPa	938.56
318.15 K, 40000 kPa	948.09
318.15 K, 50000 kPa	956.88
318.15 K, 60000 kPa	965.06
323.15 K, 2500 kPa	899.25
323.15 K, 5000 kPa	902.71
323.15 K, 7500 kPa	906.1
323.15 K, 10000 kPa	909.42
323.15 K, 20000 kPa	921.53
323.15 K, 30000 kPa	932.47
323.15 K, 40000 kPa	942.39
323.15 K, 50000 kPa	951.44
323.15 K, 60000 kPa	959.86
328.15 K, 2500 kPa	892.18
328.15 K, 5000 kPa	895.9
328.15 K, 7500 kPa	899.49
328.15 K, 10000 kPa	902.97
328.15 K, 20000 kPa	915.52
328.15 K, 30000 kPa	926.72
328.15 K, 40000 kPa	936.8
328.15 K, 50000 kPa	946.08
328.15 K, 60000 kPa	954.71
333.15 K, 2500 kPa	884.69
333.15 K, 5000 kPa	888.51
333.15 K, 7500 kPa	892.17
333.15 K, 10000 kPa	895.74
333.15 K, 20000 kPa	908.84
333.15 K, 30000 kPa	920.52
333.15 K, 40000 kPa	931.04
333.15 K, 50000 kPa	940.62
333.15 K, 60000 kPa	949.48
338.15 K, 2500 kPa	877.34
338.15 K, 5000 kPa	881.44
338.15 K, 7500 kPa	885.37
338.15 K, 10000 kPa	889.16
338.15 K, 20000 kPa	902.71
338.15 K, 30000 kPa	914.72
338.15 K, 40000 kPa	925.5
338.15 K, 50000 kPa	935.32
338.15 K, 60000 kPa	944.34
